Earlier results, collected in patent US7838544B2, “Heterocyclic inhibitors of 11-β hydroxyl steroid dehydrogenase type 1 and methods of using the same” (Incyte Corporation, priority 2006, dated 2010).

Target: T1, 11βHSD1 in the eye (Homo sapiens, UniProt P28845)
T1 construct: host or cells: eye of healthy volunteers, in vivo (11βHSD1 localized to non-pigmented epithelial cells)
Conditions: healthy volunteers, after seven days of carbenoxolone treatment

T1 sequence (P28845 whole entry): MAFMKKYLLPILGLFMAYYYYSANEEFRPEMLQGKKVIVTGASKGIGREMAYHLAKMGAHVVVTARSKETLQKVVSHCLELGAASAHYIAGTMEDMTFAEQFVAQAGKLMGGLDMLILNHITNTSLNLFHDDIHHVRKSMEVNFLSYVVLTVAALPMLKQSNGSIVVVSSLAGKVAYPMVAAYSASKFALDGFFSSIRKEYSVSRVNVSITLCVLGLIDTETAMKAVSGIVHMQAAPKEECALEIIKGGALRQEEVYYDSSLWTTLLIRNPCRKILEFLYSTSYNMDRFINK

Structure (SMILES): CC1(C)[C@@H](OC(=O)CCC(=O)O)CC[C@]2(C)[C@H]3C(=O)C=C4[C@@H]5C[C@@](C)(C(=O)O)CC[C@]5(C)CC[C@@]4(C)[C@]3(C)CC[C@@H]12 [carbenoxolone]
- reduction of intra-ocular pressure (IOP): 18%
